Tests used:
UB-OC1 = assay: MTT assay in auditory cells UB-OC1; assay type: cell-based
Procedure: HEI-OC1 and UB-OC1 as auditory cells were subjected to MTT assay. Auditory cell lines were seeded on a 96-well plate in the ratio of 2×10^3 cells/well, and then cultured in an incubator under the condition of 37° C., 5% CO2 for 2 days. The compounds of Examples 1 and 2 were used at various concentrations with operating 5 runs for each sample, and then cultured in the incubator for 16 hours. The plate was treated with 1 mg/ml MTT solution per well, and then cultured in the incubator for 4 hours. Then, 100 μl DMSO per well was used to dissolve formazan, and the optical density of formazan as dissolved was measured at 540 nm.

auditory cells = assay: FACScan with Annexin-V and PI double staining; assay type: cell-based
Procedure: The degree of apoptosis was analyzed with Annexin V-FITC Apoptosis Detection kit I (BD Biosciences, San Diego, Calif.). 3×10^5 cells were seeded on 60 mm dish, incubated, then starved for 24 hours, and treated with the compounds of Examples 1 and 2 by conditions and incubated for 24 hours. After removing the culture solution, the cells were washed two times with PBS, and suspended in the binding buffer in the ratio of 1×10^6 cells/ml. 100 μl of this solution was transferred to 5 ml tube, and after addition of 5 μl of Annexin V-FITC to the tube, well mixed together, and then reacted for about 15 minutes in the dark place. Then, 400 μl of the binding buffer was added, and the cells were counted until 10,000 cells were on Becton Dicki nson FACSscan (Lysis II Ver. 1.0). The degree of apoptosis was measured depending on the expression of Annexin V-FITC from the result of FACScan flowcytometry. In addition, the degree of apoptosis was also measured under fluorescence microscope.

HEI-OC1 cells = assay: Cell cycle analysis using FACScan; assay type: cell-based; conditions: cisplatin plus compound
Procedure: The cells were treated with trypsin, washed with PBS, and then stained with a dye (5 mg/ml propidium iodide, 20 mg/ml RNase A) in a dark room at normal temperature for 15 minutes. The stained cells were analyzed with a flow cytometry cell sorter (Becton Dickinson).

HEI-OC1 = assay: Measurement of mitochondrial membrane potential (MMP), JC-1; assay type: cell-based; conditions: cisplatin plus compound
Procedure: The mitochondrial membrane potential (MMP) was measured using 5,5V,6,6V-tetrachloro-1,1V,3,3V-tetraethylbenzimidazolcarbocyanine iodide (JC-1; Molecular Probes) as a lipophilic cationic probe.
JC-1 is a fluorescent dye which is accumulated by mitochondria in its inside. If the function of mitochondria is normal, MMP is high and mitochondria are predominantly red. Then, if mitochondria are damaged, MMP is reduced and mitochondria are changed into green.

[1] = test system: JNK, p38, cleaved caspase 3, PARP in HEI-OC1; assay: Western blotting of apoptosis-related proteins; assay type: cell-based; conditions: cisplatin plus compound
[2] = test system: zebrafish (Danio rerio) embryo; assay: Drug toxicity in zebrafish and effect on zebrafish embryos; assay type: in vivo
Procedure: To identify the drug toxicity of the compound of the present invention, zebrafish (Danio rerio) embryo was treated with the compound of Example 1 by concentrations (0, 50, 100, 150, 200, 400 μM), and then cultured in the incubator at 28.5° C. for one hour, washed three times with fresh 0.3× Danieu's Solution, and then cultured at 28.5° C. for 3 hours. The embryotoxicity was identified by examining the hatching rate, organogenesis, development, etc. of embryo under a microscope (AXIO vert 200, Carl zeiss, Gottingen, Germany), and the survival rate of embryo was determined depending on whether the cardiac contractility of embryo is present or absent.
Further, to determine the general toxicity of the compound of Example 1, the influence of the compound of Example 1 on embryos of zebrafish were tested. One female and two male sexually mature zebrafish were maintained for a 14 h light/10 h dark photoperiod. Several rectangular mesh wire boxes were placed at the bottom of the aquaria to collect the eggs the following morning. The eggs were pre-treated with the compound of Example 1 (100 μg/ml) for 1 hr, after then the eggs were washed twice with sea salt 1×. […] After three washes with sea salt 1×, the zebrafish eggs were observed under a microscope.

zebrafish neuromast [3] = assay: Observation of zebrafish neuromast using fluorescent microscope (Yo-Pro-1); assay type: in vivo, Danio rerio; conditions: cisplatin plus compound, dose-dependent
Procedure: When embryo of zebrafish (Danio rerio) wild type is on the 4th day, the drugs (compounds of Examples 1 and 2) were added to 2 ml of embryo media in 6 well, and then 5 embryos were added to each group and reacted with the drug in the incubator maintained at 28.5° C. for one hour. After reaction, embryos were washed three times with embryo media, and then placed in clean embryo media for 3 hours. After 3 hours, […] of Yo-Pro-1 (molecular probes, Oregon U.S.A) was added to embryo media, and then reacted for one hour in the place with blocking the light. After reaction, embryos were washed again three times with clean embryo media, and anesthetized with 8 μg/ml of MS222 (3-aminobenzoic aid ethyl ester, methanesulfonate salt, Sigma Chemical CO, St Louis, U.S.A) anesthetic.

zebrafish neuromast [4] = assay: Scanning and transmission electron microscopy of zebrafish neuromast; assay type: in vivo, Danio rerio; conditions: 50 μM cisplatin, combined use of compound
From the text: They were dried with a drier, treated with an evaporator (MED010; Baltec, Hudson, N.H.), and then observed using a scanning microscope (JSM-6700F JEOL, Tokyo, Japan).
Larvae were cut in the direction from head to tail, sliced to a thickness of […], and then stained with 1% toluidine blue. They were divided into ultrathin sections (90 nm) using Ultracut S microtome (Leica, Wetzlar, Germany), mounted on 200-mesh Athene thin bar-grids, treated with uranyl acetate and lead citrate, and then observed using s transmission electron microscope (EM 902A Carl Zeiss).

neuromasts of zebrafish = assay type: in vivo; conditions: 4 dpf larvae, 50 μM cisplatin co-treatment with compound
Procedure: To detect the apoptotic cells in the embryos, TUNEL assay was employed. […] Thereafter, the larvae were washed with PBS and fixed in 4% paraformaldehyde with 0.1% Tween 20 at room temperature for 24 h. The fixed embryos were then dehydrated, rehydrated, and treated with 60 μg/ml protease kinase (Invitrogen, USA) for 10 min. After the protease kinase treatment, the embryos were fixed in 4% paraformaldehyde in PBS with 0.1% Tween 20 again. The TUNEL staining was achieved by using an in situ apoptosis detection kit. The fixed embryos were immersed in the permeabilization buffer for 30 min on ice. The apoptotic cells were labeled by staining the embryos in a mixture of Terminal Deoxynucleotidyl Transferase (TdT) enzyme and labeling safe buffer containing Fluorescein labeled-2′-Deoxyuridine, 5′-Triphosphate, FITC-dUTP in the ratio of 1 to 9. The embryos were then incubated in a 37° C. humidified chamber for 120 min. The embryos were finally washed thoroughly by PBS in 0.1% Tween 20. The apoptotic signals were captured by a fluorescence microscope (Carl Zeiss, Oberkochen, Germany).

rat hearing = assay: Measurement of brainstem evoked potential hearing in rat; assay type: in vivo; conditions: cisplatin in combination with compound (2 mM inside eardrum)
Procedure: Rats were anesthetized with a mixed anesthetic of 1:1 zoletil and rompun, and then subjected to the examination of brainstem evoked potential hearing. […] The stimulus sound was measured by lowering 13 times/sec of the alternating click sound from the strength of 75 dB HL at the ratio of 5 dB per step. The hearing threshold was defined to be a strength at which the normal wave form I is assumed on the basis of the wave form I, the frequency filter of click sound was controlled to 100-3000 Hz, and the number of total stimulus sound was 1,024.
The drug was administered inside eardrum of rats with a 26 gage needle. The brainstem evoked potential hearing was measured a total of three times on days 1, 3 and 7 after administration of the drug.

NC1(c2ccc(F)cc2)C(=O)Nc2ccccc2C1=O (centres unmarked) [Example 1, 3-amino-3-(4-fluorophenyl)quinolin-2,4(1H,3H)-dione]
cisplatin-induced apoptosis of auditory hair cells (MTT) (UB-OC1; UB-OC1, 50 of cisplatin plus compound, as the dose of the compound increases): statistically significantly inhibited | cytotoxicity in auditory hair cells (MTT) (UB-OC1; UB-OC1, compound alone, up to elevated dose of 200): substantially no cytotoxicity | apoptosis increased by cisplatin (annexin/PI FACS), simultaneous administration of compound (auditory cells; 50 μM of cisplatin plus compound): statistically significantly inhibited | effect of 100 μM compared to 50 μM of compound (annexin/PI FACS) (auditory cells; with 50 μM cisplatin, dose-dependent manner): better effect | cisplatin-induced increase in sub G1 (HEI-OC1 cells): effectively reduced | cisplatin-induced mitochondria damage (loss of MMP, green fluorescence) (HEI-OC1): inhibited | cisplatin-induced JNK, p38, cleaved caspase 3, PARP [1]: effectively inhibited | drug toxicity for 7 days after incubation of zebrafish ([2]; 50, 100, 150, 200, 400 μM): did not show the drug toxicity | zebrafish embryos, damage caused by cisplatin ([2]; cisplatin (50 μM) plus compound, 24 h): rescued | embryotoxicity in zebrafish model ([2]; even at the concentration of 400 μM): did not show the drug toxicity | neuromast including auditory hair cells disappeared by cisplatin (zebrafish neuromast [3]): effectively protected | damage of kinocilium and stereocilia caused by cisplatin (SEM, TEM) (zebrafish neuromast [4]): inhibited the damage of kinocilium and stereocilia | TUNEL positive cells in zebrafish larvae compared to cisplatin alone (neuromasts of zebrafish): reduced TUNEL positive cells | hearing threshold (rat hearing): 25˜35 dB
